Assay results from EP4567040A1, “CRYSTAL FORM OF FUSED TRICYCLIC DERIVATIVE AND PREPARATION METHOD” (Jiangsu Hengrui Pharmaceuticals Co., Ltd., priority 2022, dated 2024).

System: DPX2 (HepG2 cells were stably transfected with the human PXR gene and the fluorescent reporter gene) cells
Experiment: Cell viability in the PXR induction assay (CellTiter-Fluor)
Format: cell-based
Protocol: • 1. The potential of the test compounds to induce the activity of drug metabolism enzymes through in vitro activation of PXR was evaluated. […] […] Experimental procedures • 3.1. Preparation for plating • 1) 50 mL of FBS was added to 450 mL of cell culture medium. • 2) DPX2 cells were cultured in a T-75 culture flask in a 37 °C, 5% CO2 incubator with 95% relative humidity. When covering 80-90% of the bottom of the culture flask, the cells were digested. • 3) The top layer of cells cultured in the T-75 culture flask was washed with 8 mL of PBS, and the PBS was pipetted off. The cells were digested with 3 mL of pancreatin at 37 °C for about 5 min or until they were floating in the pancreatin. 10 mL (excessive) of a serum-containing culture medium was added to neutralize the pancreatin. • 4) The cell suspension was transferred to a conical-bottomed centrifuge tube and centrifuged at 120 g for 10 min. The cells were suspended in the plating culture medium, and the concentration was adjusted to 4 × 10^5 cells/mL. The diluted cells were added to a 96-well cell culture plate at 100 µL/well. The culture plate was placed in an incubator and incubated at 37 °C for 24 h before the PXR activation experiment. • 3.2. […] […] The final concentration of DMSO was 0.1%. 1 µL of DMSO was added to a well containing 1 mL of pre-incubated culture medium as a solvent control. • 2) The cell culture plate was taken out of the incubator, and the culture medium was discarded. The test compounds and the positive compound were added to appropriate wells at 100 µL/well, and each group was tested in duplicate. The cell plate was placed in an incubator and incubated for 24 h. • 3.3. Quantification of PXR activation • 1) After […] of compound treatment, PXR activation was quantified for the culture. • 2) The CellTiter-Fluor™ cell viability assay kit and the One-Glo Luciferase reagent were equilibrated to room temperature. The GF-AFC (10 µL) substrate was added to Assay Buffer (10 mL) to form a 2× reagent, and the reagent was then diluted to 1× with 10 mL of PBS; the ONE-Glo substrate was added to the ONE-Glo Luciferase Assay buffer. • 3) The cell culture plate was taken out of the incubator, and the culture medium in each well was discarded. The plate was washed twice with PBS. The 1× CellTiter-Fluor™ reagent was added to a sterilized reagent reservoir, and 50 µL was transferred to each well using a multi-channel pipette. The plate was incubated at 37 °C for 30 min. • 4) The 96-well cell plate was taken out of the incubator, and the fluorescence in each well was measured using a microplate reader put in the fluorescence mode at an excitation wavelength of 400 nm and an emission wavelength of 505 nm. • 5) The ONE-Glo reagent was poured into a reagent reservoir, and then 50 µL was transferred to each well using a multi-channel pipette. The reagent was gently and well mixed, and the mixture was incubated and well mixed at room temperature for 5 min. After the incubation, the luminescence in each well was measured using a luminometer.
The calculation formula for cell viability: Percent cell viability (%) = I(sample)/(I(vehicle) × 100 [formula]
I(sample) represents the fluorescence intensity of the sample, and I(vehicle) represents the fluorescence intensity of 0.1% DMSO to cells.

Q: Which “Cell viability (%)” value (compound concentration 0.0195 µM) does the source give for `CO[C@H]1/C=C/O[C@@]2(C)Oc3c(C)c(O)c4c(O)c(c(/C=N/N5CCN(C)CC5)c(O)c4c3C2=O)NC(=O)/C(C)=C\C=C\[C@H](C)[C@H](O)[C@@H](C)[C@@H](O)[C@@H](C)[C@H](OC(C)=O)[C@@H]1C` [Rifampicin, reference compound] here?
A: 103.39%

Q: What about the “Cell viability (%)” value (compound concentration 20.0 µM) of the same molecule?
A: 93.07%
